From the NIST ThermoML archive (doi:10.1016/j.jct.2012.03.034)

Assay: xn = mol fraction of the nth substance listed
Conditions: 101 kPa, Liquid; for speed of sound: Linear variable-path acoustic interferometer; for mass density: Vibrating tube method; for viscosity: dual vibrating plate viscometer, AandD Co. Ltd Model SV-10

CC[NH+](CC)CC.O=S(=O)([O-])O [triethylammonium hydrogen sulfate] + CN1CCCC1=O
Conditions	mass density [kg/m3]	speed of sound [m/s]	viscosity [mPa·s]
298.15 K, x1 = 0.0115	1032.8	1575	3.39
298.15 K, x1 = 0.0234	1038.22	1585	4.63
298.15 K, x1 = 0.0632	1050.09	1610	4.46
298.15 K, x1 = 0.0927	1059.1	1627	4.81
298.15 K, x1 = 0.1387	1070.98	1658	4.99
298.15 K, x1 = 0.2259	1088.61	1710	8.89
298.15 K, x1 = 0.2631	1094.64	1734	19.46
298.15 K, x1 = 0.3261	1103.78	1770	40.98
298.15 K, x1 = 0.4478	1116.87	1823	96.22
298.15 K, x1 = 0.5947	1127.01	1871	163.18
298.15 K, x1 = 0.7717	1135	1893	229.32
298.15 K, x1 = 0.9017	1139.74	1885	245.82
298.15 K, x1 = 0.9497	1141.23	1879	242.86
298.15 K, x1 = 1	1142.89	1874	235
303.15 K, x1 = 0.0115	1029.6	1559	1.09
303.15 K, x1 = 0.0234	1033.96	1569	1.26
303.15 K, x1 = 0.0632	1046.49	1594	1.97
303.15 K, x1 = 0.0927	1054.51	1613	1.09
303.15 K, x1 = 0.1387	1066.39	1646	2.15
303.15 K, x1 = 0.2259	1084.19	1699	4.28
303.15 K, x1 = 0.2631	1090.49	1724	8.71
303.15 K, x1 = 0.3261	1099.54	1761	24.33
303.15 K, x1 = 0.4478	1112.6	1818	66.28
303.15 K, x1 = 0.5947	1123.51	1867	119.65
303.15 K, x1 = 0.7717	1132.09	1891	168.61
303.15 K, x1 = 0.9017	1137.34	1886	175.33
303.15 K, x1 = 0.9497	1139.47	1881	168.86
303.15 K, x1 = 1	1141.83	1871	153
308.15 K, x1 = 0.0115	1024.16	1541	1.08
308.15 K, x1 = 0.0234	1028.44	1552	0.73
308.15 K, x1 = 0.0632	1040.72	1574	–
308.15 K, x1 = 0.0927	1048.71	1595	–
308.15 K, x1 = 0.1387	1060.66	1628	–
308.15 K, x1 = 0.2259	1078.74	1682	–
308.15 K, x1 = 0.2631	1085.15	1707	7.75
308.15 K, x1 = 0.3261	1094.3	1746	23.71
308.15 K, x1 = 0.4478	1107.95	1806	66.53
308.15 K, x1 = 0.5947	1119.05	1862	116.6
308.15 K, x1 = 0.7717	1128.8	1892	161.59
308.15 K, x1 = 0.9017	1135.26	1887	165.14
308.15 K, x1 = 0.9497	1137.73	1880	156.95
308.15 K, x1 = 1	1140.72	1866	138
313.15 K, x1 = 0.0115	1019.77	1535	1.97
313.15 K, x1 = 0.0234	1023.04	1547	0.71
313.15 K, x1 = 0.0632	1034.66	1573	0.73
313.15 K, x1 = 0.0927	1043.09	1592	0.2
313.15 K, x1 = 0.1387	1055.07	1624	–
313.15 K, x1 = 0.2259	1072.51	1681	1.97
313.15 K, x1 = 0.2631	1079.29	1706	7.8
313.15 K, x1 = 0.3261	1088.65	1748	22.1
313.15 K, x1 = 0.4478	1102.48	1809	60.67
313.15 K, x1 = 0.5947	1114.67	1865	104.9
313.15 K, x1 = 0.7717	1125.81	1894	142.04
313.15 K, x1 = 0.9017	1133.51	1884	141.04
313.15 K, x1 = 0.9497	1136.49	1878	131.02
313.15 K, x1 = 1	1140.02	1859	108
